Assay results taken from US6335372B1, “Treatment of obsessive compulsive disorder” (Orion Corporation, priority 2000, dated 2002).

Tested on: obsessive-compulsive symptoms
Experiment: Treatment of two patients having obsessive-compulsive symptoms with deramciclane
Assay type: in vivo
Settings: one 15 mg tablet twice daily (30 mg/day), 8 week treatment period
Protocol: The efficacy of deramciclane in the treatment of OCD, is illustrated with two patients having obsessive-compulsive symptoms. These patients received one 15 mg tablet of deramciclane twice daily (=30 mg/day) for an eight-week active treatment period.

## CN(C)CCO[C@]1(c2ccccc2)C[C@H]2CC[C@]1(C)C2(C)C [deramciclane, (1R,2S,4R)-(−)-2-phenyl 2-(dimethylaminoethoxy)-1,7,7-trimethyl-bicyclo[2.2.1]heptane]
  obsessive-compulsive symptoms as assessed by the responsible physician: reduced in a clinically significant way
